Results as given in BigSolDB 2.1.

O=C(O)c1cccc(C(=O)O)n1
Conditions | solubility (mole fraction)
in 1,4-dioxane, 293.15 K | 0.00197
in 1,4-dioxane, 298.15 K | 0.00219
in 1,4-dioxane, 303.15 K | 0.0025
in 1,4-dioxane, 308.15 K | 0.00291
in 1,4-dioxane, 313.15 K | 0.00336
in 1,4-dioxane, 318.15 K | 0.00393
in 1,4-dioxane, 323.15 K | 0.00481
in 1,4-dioxane, 328.15 K | 0.00567
in 1,4-dioxane, 333.15 K | 0.00671
in THF, 278.15 K | 0.00256
in THF, 283.15 K | 0.00275
in THF, 288.15 K | 0.00302
in THF, 293.15 K | 0.00338
in THF, 298.15 K | 0.00381
in THF, 303.15 K | 0.00421
in THF, 308.15 K | 0.00462
in THF, 313.15 K | 0.00494
in THF, 318.15 K | 0.00549
in acetic acid, 293.15 K | 0.000799
in acetic acid, 298.15 K | 0.000876
in acetic acid, 303.15 K | 0.000991
in acetic acid, 308.15 K | 0.00116
in acetic acid, 313.15 K | 0.00131
in acetic acid, 318.15 K | 0.00156
in acetic acid, 323.15 K | 0.00177
in acetic acid, 328.15 K | 0.00197
in acetic acid, 333.15 K | 0.00227
in acetonitrile, 278.15 K | 0.000183
in acetonitrile, 283.15 K | 0.000225
in acetonitrile, 288.15 K | 0.000258
in acetonitrile, 293.15 K | 0.000306
in acetonitrile, 298.15 K | 0.000379
in acetonitrile, 303.15 K | 0.000453
in acetonitrile, 308.15 K | 0.000548
in acetonitrile, 313.15 K | 0.000653
in acetonitrile, 318.15 K | 0.000779
in ethanol, 278.15 K | 0.00378
in ethanol, 288.15 K | 0.00492
in ethanol, 293.15 K | 0.00579
in ethanol, 298.15 K | 0.00702
in ethanol, 303.15 K | 0.00846
in ethanol, 308.15 K | 0.00974
in ethanol, 313.15 K | 0.0114
in ethanol, 318.15 K | 0.0142
in ethyl acetate, 278.15 K | 0.000247
in ethyl acetate, 283.15 K | 0.000353
in ethyl acetate, 288.15 K | 0.000602
in ethyl acetate, 293.15 K | 0.000897
in ethyl acetate, 298.15 K | 0.00131
in ethyl acetate, 303.15 K | 0.00215
in ethyl acetate, 308.15 K | 0.00329
in ethyl acetate, 313.15 K | 0.00477
in ethyl acetate, 318.15 K | 0.00742
in formic acid, 278.15 K | 0.00285
in formic acid, 283.15 K | 0.00305
in formic acid, 288.15 K | 0.00326
in formic acid, 293.15 K | 0.00361
in formic acid, 298.15 K | 0.00408
in formic acid, 303.15 K | 0.00456
in formic acid, 308.15 K | 0.00507
in formic acid, 313.15 K | 0.00596
in formic acid, 318.15 K | 0.00694
in isopropanol, 278.15 K | 0.0038
in isopropanol, 283.15 K | 0.00417
in isopropanol, 288.15 K | 0.00485
in isopropanol, 293.15 K | 0.00555
in isopropanol, 298.15 K | 0.00638
in isopropanol, 303.15 K | 0.00735
in isopropanol, 308.15 K | 0.00896
in isopropanol, 313.15 K | 0.0106
in isopropanol, 318.15 K | 0.0125
in methanol, 278.15 K | 0.00449
in methanol, 283.15 K | 0.0048
in methanol, 288.15 K | 0.00547
in methanol, 293.15 K | 0.00676
in methanol, 298.15 K | 0.00874
in methanol, 303.15 K | 0.0118
in methanol, 308.15 K | 0.0155
in methanol, 313.15 K | 0.0209
in methanol, 318.15 K | 0.026
in n-propanol, 278.15 K | 0.00311
in n-propanol, 283.15 K | 0.00361
in n-propanol, 288.15 K | 0.00433
in n-propanol, 293.15 K | 0.00512
in n-propanol, 298.15 K | 0.00632
in n-propanol, 303.15 K | 0.00761
in n-propanol, 308.15 K | 0.00892
in n-propanol, 313.15 K | 0.0107
in n-propanol, 318.15 K | 0.0135
in toluene, 278.15 K | 0.000365
in toluene, 283.15 K | 0.000582
in toluene, 288.15 K | 0.000848
in toluene, 293.15 K | 0.00119
in toluene, 298.15 K | 0.00175
in toluene, 303.15 K | 0.00253
in toluene, 308.15 K | 0.00356
in toluene, 313.15 K | 0.00487
in toluene, 318.15 K | 0.00589
